Values quoted from earlier work in US9925200B2, “Stable formulations of testosterone undecanoate” (Merck Sharp & Dohme B.V., priority 2014, dated 2018).

Legend:
[1] = not given; remark: listed apart in the source

In the case of `CCCCCCCCCCC(=O)O[C@H]1CC[C@H]2[C@@H]3CCC4=CC(=O)CC[C@]4(C)[C@H]3CC[C@]12C` [Testosterone undecanoate], the “Log P” value is given as 9.1 and the water solubility [1] is given as “very low”.
